We go through 19 compounds from PubChem BioAssay AID599 (The Scripps Research Institute Molecular Screening Center, 2007).

The test deals with Nuclear receptor ROR-alpha (Homo sapiens) (UniProt P35398). Briefly: RORA reporter inhibition, dose response, counter-screen for SF-1 inhibitor project, cell-based (AID 599). A general note: A counterscreen serves to expose hits that act by an unwanted route or on another target.

pIC50: −log10 of the molar value. Calls of active or inactive are those of the source. The rule behind the calls is not given here.

Sequence of Nuclear receptor ROR-alpha (Homo sapiens) (P35398 whole entry, looked up): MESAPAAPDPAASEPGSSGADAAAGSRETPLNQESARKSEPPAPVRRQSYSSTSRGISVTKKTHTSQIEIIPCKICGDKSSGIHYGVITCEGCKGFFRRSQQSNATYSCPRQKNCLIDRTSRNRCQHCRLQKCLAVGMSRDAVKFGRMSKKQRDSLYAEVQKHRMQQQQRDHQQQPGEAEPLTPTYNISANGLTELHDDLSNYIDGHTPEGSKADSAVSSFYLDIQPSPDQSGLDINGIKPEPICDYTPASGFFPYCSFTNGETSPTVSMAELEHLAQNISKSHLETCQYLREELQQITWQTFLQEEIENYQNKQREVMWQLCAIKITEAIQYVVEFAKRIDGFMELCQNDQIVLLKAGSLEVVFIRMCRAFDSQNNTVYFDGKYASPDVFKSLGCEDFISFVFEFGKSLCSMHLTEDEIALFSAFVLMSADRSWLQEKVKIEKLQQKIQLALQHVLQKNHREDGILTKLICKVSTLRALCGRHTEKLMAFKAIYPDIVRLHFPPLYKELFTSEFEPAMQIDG

Consider `COC(=O)C1=C(CN2CCCc3ccccc32)NC(=O)NC1c1ccc(F)cc1` (centres undefined), for which the pIC50 (usually the IC50 on a negative log10 scale, so that one unit is a factor of ten) is 5.44. Turning to `O=S(=O)(c1ccc2c(c1)C(=NO)c1cc(S(=O)(=O)N3CCCCC3)ccc1-2)N1CCCCC1`, the pIC50 is 5.71. Turning to `CN(C)c1ccc2c(c1)OC(N)=C(C#N)C2c1cccc(F)c1` (centres undefined), the IC50 – broadly, the concentration needed to halve the response being measured – is “inactive”. `CC(=O)CC1OC(=O)C(Br)=C1NCc1ccccc1` (centres undefined): the pIC50 was 5.02.

Take `CCOC(=O)C1=C(Cn2cnc3ccccc32)NC(=O)NC1c1cc(C)ccc1C` (centres undefined): the IC50 is > 11 µM (inactive). Take `CCN(CC)c1ccc2c(c1)OC(N)=C(C#N)C2c1cccnc1` (centres undefined): the IC50 entry is “inactive”.

`O=C(/C=C\Nc1ccc2c(c1)OCO2)c1ccccn1`: the IC50 is > 11 µM (inactive). The same measure, in the same setting: for `COc1cc(C2C(C#N)=C(N)Oc3cc(N)ccc32)cc(OC)c1OC` (centres undefined) the value was “inactive”; for `N#CC1=C(N)C(C#N)(C#N)[C@H](c2ccncc2)[C@H]2CN(C(=O)OCc3ccccc3)CC=C12`, “inactive”.

With `CCOc1ccccc1-n1c(SCC(=O)Nc2ccc(CC)cc2)nc2n[nH]c(C)c2c1=N`, the negative logarithm of the IC50 (pIC50) was 5.18. Still for that read-out and setting: for `COc1cc(/C=N/O)ccc1OCc1ccc(C(=O)O)cc1` the value was 6.01; for `O=C(/C=C\Nc1cccc(F)c1)c1ccc2c(c1)OCO2`, 5.26. With `CSC1=C(C#N)C(c2ccc(Cl)cc2)C2=C(CC(C)(C)CC2=O)N1` (centres undefined), the IC50 result is “inactive”. For `O=C(/C=C\Nc1ccccn1)c1ccc(Cl)cc1`, the negative logarithm of the IC50 (pIC50) was 5.15.

On to `COc1cc(C2C(C#N)=C(N)Oc3cc(N(C)C)ccc32)cc2c1OCO2` (centres undefined), for which the IC50 was > 3.67 µM (inactive). `COc1cc(C2C(C#N)=C(C)NC3=C2C(=O)c2ccccc23)cc(OC)c1OC` (centres undefined): the negative logarithm of the IC50 (pIC50) was 5.32. On to `COC(=O)c1ccc(N2C(=O)CC(N3CCC(n4c(=O)[nH]c5ccccc54)CC3)C2=O)cc1` (centres undefined), for which the IC50 was > 99 µM (inactive). Same read-out and setting: the same measure for `CN(C)c1ccc(N/C=C/C(=O)c2ccccc2)cc1`: “inactive”; for `Cc1ccc(C(=O)/C=C/Nc2ccccn2)cc1`: “inactive”.
